Legend:
[1] = target: human insulin receptor(B); assay: Insulin Receptor Binding Assay (scintillation proximity assay); conditions: SPA, 384-well, membranes from CHO cells overexpressing human insulin receptor(B); [125I]-insulin 0.015 nM; room temperature, 1 to 12 hours
Method: Both the binding affinity and functional activity of 18 supported the conclusion that the A19-CF3-tyrosine–insulin maintained its structural integrity as compared with unmodified, native insulin. To further support this observation, SOFAST ^13C methyl HMQC NMR spectroscopic analysis was conducted on both 18 and native unmodified insulin.[18] […] This observation validated the notion that CF3-labeling of aromatic sidechains provides a sensitive ^19F-NMR spectroscopic probe of the local environment in complex peptides while being minimally perturbing to the overall structure of the biomacromolecule.
Insulin Receptor Binding Assays were run in a scintillation proximity assay (SPA) 384- we ll
format using cell membranes prepared from CHO cells overexpressing human insulin
receptor(B) grown in F12 media containing 10% FBS and antibiotics (G418,
Penicillin/[…]). Cell membranes were prepared in 50 mM Tris buffer, pH 7.8, containing
5 m M Mg Cl 2. The assay buffer contained 50 mM Tris buffer, pH 7.5, 150 mM NaCl, 1 mM
CaCl2, 5 mM MgCl 2, 0.1% BSA and protease inhibitors (Complete- Mi n i -Roche). Cell
membranes were added to W GA PVT PEI SPA beads (5 mg/mL f inal concentration) f ollowed by
addition of test molecules at appropriate concentrations. After 5-15 min incubation at room
temperature, [125I]- insulin was added at 0.015 nM f inal concentration f or a f inal total volume of
50 µL. […]

[2] = target: human insulin receptor(B); assay: Insulin Receptor Phosphorylation Assay (MSD pIR assay); format: cell-based; conditions: CHO cells stably expressing human insulin receptor(B), serum starved, 40,000 cells/well, 8 min at 37 °C, read-out: EC50 (functional assay)

IC50 [1]: 0.8 nM
EC50 [2]: 0.4 nM
Substance: native insulin: recombinant human insulin, 21 amino acid A chain and 30 amino acid B chain linked by three disulfide bonds
